Reference: patent US20250163032A1, “NOVEL MOLECULES AS INHIBITORS OF DNA DAMAGE REPAIR PATHWAY” (VRise Therapeutics, Inc., priority 2023, published 2025)

Target: USP1/UAF1 (Homo sapiens, UniProt O94782)
Assay: USP1/UAF 1 assay (ubiquitin-rhodamine110 fluorometric deubiquitinase assay)
Format: biochemical
Details: for inhibition at 1 µM: read-out: Biochemical assay % inhibition @1 μM; for inhibition at 10 µM: read-out: Biochemical assay % inhibition @10 μM
Description: Test-1: USP1/UAF 1 Assay:
Deubiquitinase activity of USP1/UAF1 was monitored in a fluorometric assay using ubiquitin-rhodamine110 as substrate. Briefly, enzymatic reactions were conducted in an assay buffer composed of 50 mM HEPES, pH 7.8, 0.5 mM EDTA, 100 mM NaCl, 1 mM TCEP, 0.1 mg/mL BSA, and 0.01% Tween-20 that contained 1 nM USP1/UAF1. Compounds were tested at desired concentrations. The plates were incubated for 15 min to attain equilibrium, and then the enzymatic reaction was initiated by dispensing 150 nM Ub-Rho solution. Fluorescence measurement was performed in a high throughput CCD imager, where kinetic measurements of rhodamine fluorescence were acquired using a 480 nm excitation/540 nm emission filter set. The change in fluorescence intensity over a 5-minute reaction period (typically associated with less than 10% substrate conversion) was normalized against no-inhibitor and no-enzyme controls and the resulting percent inhibition data were fitted to a sigmoidal dose response using a four-parameter Hill equation. Data was be analysed and percent inhibition and/or IC50 for each test compound is calculated accordingly.

Sequence of USP1/UAF1 (O94782 whole entry): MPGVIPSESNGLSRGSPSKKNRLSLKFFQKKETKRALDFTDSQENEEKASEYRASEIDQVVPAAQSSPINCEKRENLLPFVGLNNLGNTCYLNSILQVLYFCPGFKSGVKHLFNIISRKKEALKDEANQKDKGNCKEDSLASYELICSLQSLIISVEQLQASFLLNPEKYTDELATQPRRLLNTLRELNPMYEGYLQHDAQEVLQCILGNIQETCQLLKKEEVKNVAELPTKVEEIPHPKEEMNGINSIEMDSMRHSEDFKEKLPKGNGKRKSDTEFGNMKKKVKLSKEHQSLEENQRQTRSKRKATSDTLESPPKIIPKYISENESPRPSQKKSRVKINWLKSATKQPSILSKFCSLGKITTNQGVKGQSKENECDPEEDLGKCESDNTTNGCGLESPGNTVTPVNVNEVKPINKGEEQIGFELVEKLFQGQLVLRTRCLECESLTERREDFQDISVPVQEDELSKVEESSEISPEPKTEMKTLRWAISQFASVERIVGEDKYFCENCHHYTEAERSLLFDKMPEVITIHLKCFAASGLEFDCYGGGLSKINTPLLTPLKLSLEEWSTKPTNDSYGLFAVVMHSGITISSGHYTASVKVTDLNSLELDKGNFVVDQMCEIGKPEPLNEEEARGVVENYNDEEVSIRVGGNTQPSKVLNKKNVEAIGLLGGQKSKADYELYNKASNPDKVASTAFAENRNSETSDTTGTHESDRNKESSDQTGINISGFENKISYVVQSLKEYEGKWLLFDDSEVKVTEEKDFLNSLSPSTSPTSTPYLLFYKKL
Sequence of USP1/UAF1 (Q8TAF3 whole entry partner): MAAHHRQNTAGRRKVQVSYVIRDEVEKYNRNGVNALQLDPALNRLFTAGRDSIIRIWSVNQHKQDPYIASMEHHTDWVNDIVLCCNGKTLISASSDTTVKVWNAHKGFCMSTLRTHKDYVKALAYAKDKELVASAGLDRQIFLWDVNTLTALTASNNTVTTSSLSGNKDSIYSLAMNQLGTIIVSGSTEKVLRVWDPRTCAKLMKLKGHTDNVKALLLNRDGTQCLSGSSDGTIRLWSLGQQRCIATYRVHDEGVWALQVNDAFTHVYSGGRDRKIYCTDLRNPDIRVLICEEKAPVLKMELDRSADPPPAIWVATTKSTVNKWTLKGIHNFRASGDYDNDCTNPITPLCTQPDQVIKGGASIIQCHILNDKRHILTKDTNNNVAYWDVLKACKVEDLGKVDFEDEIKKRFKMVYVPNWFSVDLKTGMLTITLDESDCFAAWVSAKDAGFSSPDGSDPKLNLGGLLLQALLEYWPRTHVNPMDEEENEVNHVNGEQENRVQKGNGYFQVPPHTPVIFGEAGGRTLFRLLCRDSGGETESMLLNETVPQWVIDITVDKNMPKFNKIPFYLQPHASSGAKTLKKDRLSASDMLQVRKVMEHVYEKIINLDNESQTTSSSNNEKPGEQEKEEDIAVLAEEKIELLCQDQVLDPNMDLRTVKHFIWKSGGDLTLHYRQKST

| inhibition at 1 µM | Compound | further results |
| --- | --- | --- |
|  | CC(C)c1ccccc1-c1cc2nccn2c(NCc2ccc(-c3nc(C(F)(F)F)cn3C)cc2)n1 [Example 7, 7-(2-isopropylphenyl)-N-(4-(1-methyl-4-(trifluoromethyl)-1H-imidazol-2-yl)benzyl)imidazo[1,2-c]pyrimidin-5-amine] | IC50 (1 nM USP1/UAF1, 150 nM Ub-Rho, read-out: Biochemical assay IC50): 100 to 1000 nM |
| 50 to 75% | COc1ccc(-c2nc(NCc3ccc(-c4nc(C(F)(F)F)cn4C)cc3)c3[nH]cnc3n2)c(OC)n1 [Example 43, 2-(2,6-dimethoxypyridin-3-yl)-N-(4-(1-methyl-4-(trifluoromethyl)-1H-imidazol-2-yl)benzyl)-7H-purin-6-amine] |  |
| 50 to 75% | Cn1cc(C(F)(F)F)nc1-c1ccc(CNc2nc(-c3ccccc3C(F)(F)F)nc3nc[nH]c23)cc1 [Example 45, N-(4-(1-methyl-4-(trifluoromethyl)-1H-imidazol-2-yl)benzyl)-2-(2-(trifluoromethyl)phenyl)-7H-purin-6-amine] |  |
| 50 to 75% | CCOc1ccc(-c2nc3c(c(NCc4ccc(-c5nc(C(F)(F)F)cn5C)cc4)n2)CCC3)cn1 [Example 62, 2-(6-ethoxypyridin-3-yl)-N-(4-(1-methyl-4-(trifluoromethyl)-1H-imidazol-2-yl)benzyl)-6,7-dihydro-5H-cyclopenta[d]pyrimidin-4-amine] |  |
| > 75% | Cn1cc(C(F)(F)F)nc1-c1ccc(CNc2nc(Cl)nc3c2ncn3C2CCCCO2)cc1 (centres unmarked) [Example 17, 2-chloro-N-(4-(1-methyl-4-(trifluoromethyl)-1H-imidazol-2-yl)benzyl)-9-(tetrahydro-2H-pyran-2-yl)-9H-purin-6-amine] |  |
| 50 to 75% | Cn1cc(C(F)(F)F)nc1-c1ccc(CNc2nc(-c3cccc(C(F)(F)F)c3)nc3nc[nH]c23)cc1 [Example 58, N-(4-(1-methyl-4-(trifluoromethyl)-1H-imidazol-2-yl)benzyl)-2-(3-(trifluoromethyl)phenyl)-7H-purin-6-amine] |  |
| 50 to 75% | Cn1cc(C(F)(F)F)nc1-c1ccc(CNc2nc(-c3ccc(C#N)cc3)nc3c2CCC3)cc1 [Example 63, 4-(4-((4-(1-methyl-4-(trifluoromethyl)-1H-imidazol-2-yl)benzyl)amino)-6,7-dihydro-5H-cyclopenta[d]pyrimidin-2-yl)benzonitrile] |  |
| 50 to 75% | Cn1cc(C(F)(F)F)nc1-c1ccc(CNc2nc(-c3cccc(Cl)c3F)nc3c2CCC3)cc1 [Example 67, 2-(3-chloro-2-fluorophenyl)-N-(4-(1-methyl-4-(trifluoromethyl)-1H-imidazol-2-yl)benzyl)-6,7-dihydro-5H-cyclopenta[d]pyrimidin-4-amine] |  |
| > 75% | Cn1cc(C(F)(F)F)nc1-c1ccc(CNc2nc(-c3ccccc3C(F)(F)F)nc3c2CCC3)cc1 [Example 70, N-(4-(1-methyl-4-(trifluoromethyl)-1H-imidazol-2-yl)benzyl)-2-(2-(trifluoromethyl)phenyl)-6,7-dihydro-5H-cyclopenta[d]pyrimidin-4-amine] |  |
|  | COc1ccncc1-c1nc(NCc2ccc(-c3nc(C(F)(F)F)cn3C)cc2)c2[nH]cnc2n1 [Example 34, 2-(4-methoxypyridin-3-yl)-N-(4-(1-methyl-4-(trifluoromethyl)-1H-imidazol-2-yl)benzyl)-7H-purin-6-amine] | inhibition at 10 µM: > 75% |
|  | Cn1cc(C(F)(F)F)nc1-c1ccc(CNc2nc(N3CCOCC3)nc3nc[nH]c23)cc1 [Example 36, N-(4-(1-methyl-4-(trifluoromethyl)-1H-imidazol-2-yl)benzyl)-2-morpholino-7H-purin-6-amine] | inhibition at 10 µM: 50 to 75% |
| 50 to 75% | Cn1cc(C(F)(F)F)nc1-c1ccc(CNc2nc(-c3ccc(C(F)(F)F)cc3)nc3c2CCC3)cc1 [Example 71, N-(4-(1-methyl-4-(trifluoromethyl)-1H-imidazol-2-yl)benzyl)-2-(4-(trifluoromethyl)phenyl)-6,7-dihydro-5H-cyclopenta[d]pyrimidin-4-amine] |  |
| 50 to 75% | COc1ccc(-c2nc(NCc3ccc(-c4nc(C(F)(F)F)cn4C)cc3)c3[nH]cnc3n2)c(OC)c1 [Example 53, 2-(2,4-dimethoxyphenyl)-N-(4-(1-methyl-4-(trifluoromethyl)-1H-imidazol-2-yl)benzyl)-7H-purin-6-amine] |  |
|  | COc1ncnc(C2CC2)c1-c1nc(NCc2ccc(-c3nc(C(F)(F)F)cn3C)cc2)c2ncn(C)c2n1 [Example 37, 2-(4-cyclopropyl-6-methoxypyrimidin-5-yl)-9-methyl-N-(4-(1-methyl-4-(trifluoromethyl)-1H-imidazol-2-yl)benzyl)-9H-purin-6-amine] | inhibition at 10 µM: > 75% |
| 50 to 75% | Cc1cc(C)cc(-c2nc(NCc3ccc(-c4nc(C(F)(F)F)cn4C)cc3)c3[nH]cnc3n2)c1 [Example 50, 2-(3,5-dimethylphenyl)-N-(4-(1-methyl-4-(trifluoromethyl)-1H-imidazol-2-yl)benzyl)-7H-purin-6-amine] |  |
| 50 to 75% | Cn1cc(C(F)(F)F)nc1-c1ccc(CNc2nc(-c3ccc(OC(F)(F)F)cc3)nc3nc[nH]c23)cc1 [Example 47, N-(4-(1-methyl-4-(trifluoromethyl)-1H-imidazol-2-yl)benzyl)-2-(4-(trifluoromethoxy)phenyl)-7H-purin-6-amine] |  |
| 50 to 75% | Cn1cc(C(F)(F)F)nc1-c1ccc(CNc2nc(-c3ccc(Cl)cc3Cl)nc3nc[nH]c23)cc1 [Example 42, 2-(2,4-dichlorophenyl)-N-(4-(1-methyl-4-(trifluoromethyl)-1H-imidazol-2-yl)benzyl)-7H-purin-6-amine] |  |
| 25 to 50% | Cn1cc(C(F)(F)F)nc1-c1ccc(CNc2nc(-c3ccc(-c4ccccc4)cc3)nc3c2CCC3)cc1 [Example 64, 2-([1,1′-biphenyl]-4-yl)-N-(4-(1-methyl-4-(trifluoromethyl)-1H-imidazol-2-yl)benzyl)-6,7-dihydro-5H-cyclopenta[d]pyrimidin-4-amine] |  |
| 50 to 75% | Cn1cc(C(F)(F)F)nc1-c1ccc(CNc2nc(-c3cc(F)cc(F)c3)nc3nc[nH]c23)cc1 [Example 41, 2-(3,5-difluorophenyl)-N-(4-(1-methyl-4-(trifluoromethyl)-1H-imidazol-2-yl)benzyl)-7H-purin-6-amine] |  |
| 50 to 75% | Cn1cc(C(F)(F)F)nc1-c1ccc(CNc2nc(-c3ccc(F)c(C#N)c3)nc3nc[nH]c23)cc1 [Example 49, 2-fluoro-5-(6-((4-(1-methyl-4-(trifluoromethyl)-1H-imidazol-2-yl)benzyl)amino)-7H-purin-2-yl)benzonitrile] |  |
| 50 to 75% | Cn1cc(C(F)(F)F)nc1-c1ccc(CNc2nc(-c3cc(Cl)cc(Cl)c3)nc3nc[nH]c23)cc1 [Example 39, 2-(3,5-dichlorophenyl)-N-(4-(1-methyl-4-(trifluoromethyl)-1H-imidazol-2-yl)benzyl)-7H-purin-6-amine] |  |
| 50 to 75% | Cn1cc(C(F)(F)F)nc1-c1ccc(CNc2nc(-c3cc(Cl)cc(Cl)c3)nc3c2CCC3)cc1 [Example 73, 2-(3,5-dichlorophenyl)-N-(4-(1-methyl-4-(trifluoromethyl)-1H-imidazol-2-yl)benzyl)-6,7-dihydro-5H-cyclopenta[d]pyrimidin-4-amine] |  |
| 50 to 75% | CSc1ccc(-c2nc(NCc3ccc(-c4nc(C(F)(F)F)cn4C)cc3)c3[nH]cnc3n2)cc1 [Example 56, N-(4-(1-methyl-4-(trifluoromethyl)-1H-imidazol-2-yl)benzyl)-2-(4-(methylthio)phenyl)-7H-purin-6-amine] |  |
